From publication PMC8646516 (CPT: Pharmacometrics & Systems Pharmacology, 2021)
Where two headings read alike, the source gives them in different places.

Tests used:
[1] = samples >20 h postdose, median (IQR)
[2] = cited from earlier work
[3] = system: hospitalized patients with COVID‐19; conditions: cited from earlier work
[4] = cited from earlier work; remark: listed apart in the source
[5] = imatinib N = 197 vs placebo N = 188

## Cc1ccc(NC(=O)c2ccc(CN3CCN(C)CC3)cc2)cc1Nc1nccc(-c2cccnc2)n1 [imatinib]
[1]; COVID-19 subset 1 (model building)
  Observed total imatinib plasma concentration Ctrough: 2156 (738–4179) µg/L
[1]; COVID-19 subset 2 (validation set)
  Observed total imatinib plasma concentration Ctrough: 1791 (928.4–3204) µg/L
[2]
  Drug excreted by renal excretion: 13%
  Drug excreted via the feces: 68%
[2]; of the excreted drug
  Excreted unchanged: 25%
[2]; oral
  Bioavailability: almost complete
[3]; CounterCOVID
  Premature treatment stop due to gastrointestinal (GI) toxicity: more imatinib treated patients stopped treatment prematurely
[3]; [5]
  Duration of invasive mechanical ventilation compared with placebo: shorter
  Mortality compared with placebo: significantly lower
[4]
  Protein bound in blood: > 95%

## Cc1ccc(NC(=O)c2ccc(CN3CCNCC3)cc2)cc1Nc1nccc(-c2cccnc2)n1 [N‐desmethyl imatinib]
[2]; formed by CYP3A4
  Metabolite AUC as % of the parent AUC: ~ 10%
[2]; relative to imatinib
  Activity of the metabolite: active
